Measured values taken from US20230293526A1, “METHOD FOR TREATING CANCER WITH A REVERSE TRANSCRIPTASE INHIBITOR” (PrimeFour Therapeutics, Inc., priority 2020, published 2023).

Columns and labels:
cancer cell lines = assay: Cancer cell proliferation activity of representative nucleosides, CellTiterGlo 72 h (Example 7, Tables 8 and 9); type: cell-based; conditions: 72 h
Summary of the method: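 Cancer cell lines seeded and incubated at 37° C overnight, then exposed to nucleosides (final DMSO 0.1%) for 72 h at 37° C with 5% or 10% CO2. Viability read by CellTiterGlo luminescence and normalized to 0.1% DMSO (100%) and 10 μM staurosporine (0%) controls.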

human LINE-1 = assay: Human LINE-1 (L1) retrotransposition dual-luciferase reporter assay in HeLa cells; type: cell-based; conditions: Homo sapiens, HeLa, 72 h, read-out: Human LINE-1 IC50 (Human L1 activity inhibition)
Summary of the method: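 HeLa cells transfected with dual-luciferase L1 plasmid pYX017 (100 ng/well), dosed immediately after with serially diluted compounds (0.2% DMSO final) in triplicate and incubated 72 h at 37 °C. Relative L1 activity = Firefly/Renilla ×10,000; IC50 from logistic non-linear regression.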

C#C[C@]1(CO)O[C@@H](n2ccc(N)nc2=O)C[C@@H]1O [compound 7, 4-amino-1-((2R,4S,5R)-5-ethynyl-4-hydroxy-5 (hydroxymethyl)tetrahydrofuran-2-yl)pyrimidin-2(1H)-one]
IC50 (cancer cell lines; 72 h, 5637, bladder): 1240 nM
IC50 (cancer cell lines; CLS439, bladder): > 50000 nM
IC50 (cancer cell lines; HS729, muscle): 2100 nM
IC50 (cancer cell lines; J82, bladder): 2770 nM
IC50 (cancer cell lines; JAR, placenta): > 50000 nM
IC50 (cancer cell lines; MT3, breast): 570 nM
IC50 (cancer cell lines; PC3, prostate): 1090 nM
IC50 (cancer cell lines; RD, muscle): 3860 nM
IC50 (cancer cell lines; T24, bladder): 1030 nM
IC50 (cancer cell lines; Homo sapiens, 22Rv1, 72 h, 22RV1, prostate): 4800 nM
IC50 (cancer cell lines; Homo sapiens, 786-0, 72 h, 786O, kidney): 4280 nM
IC50 (cancer cell lines; Homo sapiens, A204, 72 h, A204, muscle): 180 nM
IC50 (cancer cell lines; Homo sapiens, A549, 72 h, A549, lung): 2190 nM
IC50 (cancer cell lines; Homo sapiens, A673, 72 h, A673, bone): 1970 nM
IC50 (cancer cell lines; Homo sapiens, A2780, 72 h, A2780, ovary): 2720 nM
IC50 (cancer cell lines; Homo sapiens, A-375, 72 h, A375, skin): 3540 nM
IC50 (cancer cell lines; Homo sapiens, A-431, 72 h, A431, skin): 2010 nM
IC50 (cancer cell lines; Homo sapiens, ACHN, kidney): 2760 nM
IC50 (cancer cell lines; Homo sapiens, ASPC1, 72 h, ASPC1, pancreas): 1230 nM
IC50 (cancer cell lines; Homo sapiens, BT-20, 72 h, BT20, breast): > 50000 nM
IC50 (cancer cell lines; Homo sapiens, BXPC-3, 72 h, BXPC3, pancreas): 4120 nM
IC50 (cancer cell lines; Homo sapiens, C-33-A, C33A, endometrial): 1030 nM
IC50 (cancer cell lines; Homo sapiens, CAKI-1, 72 h, CAKI1, kidney): 450 nM
IC50 (cancer cell lines; Homo sapiens, COLO 205, 72 h, COLO205, colon): 290 nM
IC50 (cancer cell lines; Homo sapiens, COLO-678, 72 h, COLO678, colon): > 50000 nM
IC50 (cancer cell lines; Homo sapiens, Ca-Ski, CASKI, endometrial): > 50000 nM
IC50 (cancer cell lines; Homo sapiens, Calu-6, 72 h, CALU6, lung): 6330 nM
IC50 (cancer cell lines; Homo sapiens, DLD-1, 72 h, DLD1, colon): 4630 nM
IC50 (cancer cell lines; Homo sapiens, DU-145, 72 h, DU145, prostate): 3400 nM
IC50 (cancer cell lines; Homo sapiens, EFO-21, 72 h, EFO21, ovary): > 50000 nM
IC50 (cancer cell lines; Homo sapiens, EJ-28, 72 h, EJ28, bladder): 3050 nM
IC50 (cancer cell lines; Homo sapiens, Granta-519, 72 h, GRANTA-519, hematological): 330 nM
IC50 (cancer cell lines; Homo sapiens, HCT-15, 72 h, HCT15, colon): 3280 nM
IC50 (cancer cell lines; Homo sapiens, HCT-116, 72 h, HCT116, colon): 2440 nM
IC50 (cancer cell lines; Homo sapiens, HEK293, 72 h, HEK293, kidney): > 50000 nM
IC50 (cancer cell lines; Homo sapiens, HL-60, 72 h, HL-60, hematological): 2030 nM
IC50 (cancer cell lines; Homo sapiens, HT-29, 72 h, HT29, colon): 4060 nM
IC50 (cancer cell lines; Homo sapiens, HT-1080, 72 h, HT1080, connective tissue): 1580 nM
IC50 (cancer cell lines; Homo sapiens, HeLa, endometrial): 2110 nM
IC50 (cancer cell lines; Homo sapiens, HepG2, 72 h, HEPG2, liver): 3080 nM
IC50 (cancer cell lines; Homo sapiens, Hs-578T, HS578T, breast): 4730 nM
IC50 (cancer cell lines; Homo sapiens, IGROV-1, 72 h, IGROV1, ovary): 3420 nM
IC50 (cancer cell lines; Homo sapiens, IMR-90, 72 h, IMR90, lung): > 50000 nM
IC50 (cancer cell lines; Homo sapiens, JEG-3, 72 h, JEG3, placenta): > 50000 nM
IC50 (cancer cell lines; Homo sapiens, JIMT-1, 72 h, JIMT1, breast): 820 nM
IC50 (cancer cell lines; Homo sapiens, K562, 72 h, K-562, hematological): 3520 nM
IC50 (cancer cell lines; Homo sapiens, Kasumi 1, 72 h, KASUMI-1, hematological): 320 nM
IC50 (cancer cell lines; Homo sapiens, L-363, 72 h, L-363, hematological): > 50000 nM
IC50 (cancer cell lines; Homo sapiens, LoVo, colon): 1900 nM
IC50 (cancer cell lines; Homo sapiens, MCF7, 72 h, MCF7, breast): > 50000 nM
IC50 (cancer cell lines; Homo sapiens, MDA-MB-231, 72 h, MDAMB231, breast): 480 nM
IC50 (cancer cell lines; Homo sapiens, MDA-MB-435, 72 h, MDAMB435, skin): 3490 nM
IC50 (cancer cell lines; Homo sapiens, MDA-MB-436, 72 h, MDAMB436, breast): 3800 nM
IC50 (cancer cell lines; Homo sapiens, MDA-MB-468, 72 h, MDAMB468, breast): > 50000 nM
IC50 (cancer cell lines; Homo sapiens, MG-63, 72 h, MG63, bone): 2930 nM
IC50 (cancer cell lines; Homo sapiens, MHH-ES-1, 72 h, MHHES1, bone): 2060 nM
IC50 (cancer cell lines; Homo sapiens, MIA PaCa-2, 72 h, MIAPACA2, pancreas): 5540 nM
IC50 (cancer cell lines; Homo sapiens, MINO, hematological): 200 nM
IC50 (cancer cell lines; Homo sapiens, MV4-11, 72 h, MV4-11, hematological): 4320 nM
IC50 (cancer cell lines; Homo sapiens, NCI-H23, 72 h, NCI-H23, lung): 2790 nM
IC50 (cancer cell lines; Homo sapiens, NCI-H82, 72 h, NCIH82, lung): 17000 nM
IC50 (cancer cell lines; Homo sapiens, NCI-H292, 72 h, NCIH292, lung): 1940 nM
IC50 (cancer cell lines; Homo sapiens, NCI-H460, 72 h, NCIH460, ung): 2990 nM
IC50 (cancer cell lines; Homo sapiens, OVCAR-3, 72 h, OVCAR3, ovary): 2390 nM
IC50 (cancer cell lines; Homo sapiens, OVCAR-4, 72 h, OVCAR4, ovary): > 50000 nM
IC50 (cancer cell lines; Homo sapiens, PANC-1, 72 h, PANC1, pancreas): > 50000 nM
IC50 (cancer cell lines; Homo sapiens, PLC-PRF-5, 72 h, PLCPRF5, liver): > 50000 nM
IC50 (cancer cell lines; Homo sapiens, Panc1005, 72 h, PANC1005, pancreas): 2570 nM
IC50 (cancer cell lines; Homo sapiens, Ramos, hematological): 370 nM
IC50 (cancer cell lines; Homo sapiens, SAOS-2, 72 h, SAOS2, bone): 640 nM
IC50 (cancer cell lines; Homo sapiens, SK-BR-3, 72 h, SKBR3, breast): 2110 nM
IC50 (cancer cell lines; Homo sapiens, SK-HEP1, 72 h, SKHEP1, liver): 1290 nM
IC50 (cancer cell lines; Homo sapiens, SK-LMS-1, 72 h, SKLMS1, uterus): 4200 nM
IC50 (cancer cell lines; Homo sapiens, SK-MEL-5, 72 h, SKMEL5, skin): > 50000 nM
IC50 (cancer cell lines; Homo sapiens, SK-MEL-28, 72 h, SKMEL28, skin): > 50000 nM
IC50 (cancer cell lines; Homo sapiens, SK-OV-3, 72 h, SKOV3, ovary): 3110 nM
IC50 (cancer cell lines; Homo sapiens, SU-DHL10, 72 h, SU-DHL-10, hematological): 690 nM
IC50 (cancer cell lines; Homo sapiens, SU-DHL-6, 72 h, SU-DHL-6, hematological): 1060 nM
IC50 (cancer cell lines; Homo sapiens, SW-620, 72 h, SW620, colon): 2930 nM
IC50 (cancer cell lines; Homo sapiens, TE-671, 72 h, TE671, muscle): 3490 nM
IC50 (cancer cell lines; Homo sapiens, THP-1, 72 h, THP-1, hematological): 3430 nM
IC50 (cancer cell lines; Homo sapiens, U2OS, bone): > 50000 nM
IC50 (cancer cell lines; Homo sapiens, UMUC3, 72 h, UMUC3, bladder): 3070 nM
IC50 (cancer cell lines; Homo sapiens, UO-31, 72 h, UO31, kidney): 1530 nM
IC50 (cancer cell lines; Homo sapiens, WSU-NHL, hematological): 340 nM
IC50 (cancer cell lines; NCI-H358M, NCIH358M, lung): 290 nM
IC50 (cancer cell lines; PBMC, hematological): > 50000 nM
IC50 (cancer cell lines; RD-ES, RDES, bone): > 50000 nM
IC50 (human LINE-1): 9.7 nM
